# Data reported in patent US7026475B2, “Positive allosteric AMPA receptor modulators (PAARM), processes for preparing them, and their use as pharmaceutical compositions” (Boehringer Ingelheim Pharma GmbH & Co. KG, priority 2001, dated 2006).
# Tested on: AMPA receptors
# Experiment: Electrophysiological measurement of intensification of the agonist-induced current on cells expressing functional AMPA receptors
# Format: cell-based
# Design: key: + good; + + very good
# Details: positive allosteric influence on agonist-induced current; tested at concentrations between 0.3 μmol and 300 μmol
# Procedure: The effect of the compounds according to the invention as AMPA receptor modulators was measured electrophysiologically on cells which express functional AMPA receptors. Investigations were carried out to see whether the test substances have a positive allosteric influence on the agonist-induced current.
# The test was carried out at concentrations of between 0.3 μmol and 300 μmol.
row,Compound,"Intensification of the Agonist-Induced Current, Activity"
1,"CC1Nc2cccc3cccc(c23)S1(=O)=O (centres unmarked) [Example 1, 2-methyl-2,3-dihydronaphtho[1,8-de][1,3]thiazine-1,1-dioxide]",+
2,"CC1Nc2ccc(Cl)c3cccc(c23)S1(=O)=O (centres unmarked) [Example 2, 6-chloro-2-methyl-2,3-dihydronaphtho[1,8-de][1,3]thiazine-1,1-dioxide]",+ +
